Molecular target: T1, AGE-BSA (Bos taurus, UniProt P02769)
T1 construct: Bovine serum albumin (fraction V) (BSA); from tissue
Assay: In-vitro AGE breaking activity by ELISA (16 weeks AGE-BSA incubated with test compound)
Type: biochemical, bovine
Settings: for % Breakage: 37°C, 24 hours

[1] = comparison in words based on Table 2

T1 sequence (P02769 25-607): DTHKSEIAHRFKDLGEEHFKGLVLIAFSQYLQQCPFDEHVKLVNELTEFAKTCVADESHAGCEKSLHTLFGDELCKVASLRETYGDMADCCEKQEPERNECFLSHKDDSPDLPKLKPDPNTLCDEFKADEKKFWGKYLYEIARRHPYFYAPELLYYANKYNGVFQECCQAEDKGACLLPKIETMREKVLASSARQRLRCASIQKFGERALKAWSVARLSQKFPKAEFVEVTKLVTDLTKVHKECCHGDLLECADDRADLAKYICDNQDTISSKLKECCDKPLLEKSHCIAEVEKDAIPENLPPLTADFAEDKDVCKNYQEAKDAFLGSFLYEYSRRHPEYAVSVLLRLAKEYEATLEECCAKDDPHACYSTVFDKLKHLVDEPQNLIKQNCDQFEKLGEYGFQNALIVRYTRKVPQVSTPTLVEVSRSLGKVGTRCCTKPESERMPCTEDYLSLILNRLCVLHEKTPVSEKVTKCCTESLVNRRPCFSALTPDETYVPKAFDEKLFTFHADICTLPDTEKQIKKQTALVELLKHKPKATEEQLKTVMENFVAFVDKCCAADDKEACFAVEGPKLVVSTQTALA

Row | SMILES | % Breakage (10 mM test compound) [%] | also measured
1 | CS(=O)(=O)NNC(=O)c1cc(Br)c[n+](CC(=O)c2cccs2)c1 [Compound 53, 1-(2-thien-2'-yl-2-oxoethyl)-3-(methanesulfonyl hydrazinocarbonyl)-5-bromo pyridinium bromide] |  | % Breakage (2.5 mM test compound): 29.36%
2 | Cc1ccc(C(=O)NNS(C)(=O)=O)c[n+]1CC(=O)c1cccs1 [Compound 57, 1-(2-thien-2'-yl-2-oxoethyl)-3-(methanesulfonyl hydrazinocarbonyl) -6-methyl pyridinium bromide] |  | % Breakage (1 mM test compound): 77.69%
3 | Cc1ccc(C(=O)C[n+]2cccc(C(=O)NNC(=O)c3ccc[n+](CC(=O)c4ccc(C)s4)c3)c2)s1 [Compound 58, N, N'-bis [3-carbonyl-1-(2-(5-methylthien-2-yl)-2-oxoethyl)pyridinium] hydrazine dichloride] | 81.95 | 
4 | CCOC(=O)C1CCCN1C(=O)C[n+]1cccc(C(=O)NNC(=O)c2ccc[n+](CC(=O)N3CCCC3C(=O)OCC)c2)c1 (stereo not shown) [Compound 59, N, N'-bis [3-carbonyl-1-(2-(2-ethoxycarbonyl pyrrolidin-1-yl)-2-oxoethyl)pyridinium] hydrazine dichloride] | 20.31 | 
5 | NC(=O)c1cc(C(=O)NNC(=O)c2ccc[n+](CC(=O)c3cccs3)c2)c[n+](CC(=O)c2cccs2)c1 [Compound 60, 1-[1-(2-thien-2'-yl-2-oxoethyl)-5-aminocarbonyl-3-carbonylpyridinium]-2-[1-(2-Thien-2'-yl-2-oxoethyl)-3-carbonylpyridinium] hydrazine dichloride] |  | % Breakage (1 mM test compound): 95.36%
6 | CCOC(=O)C1CSCN1C(=O)C[n+]1cccc(C(=O)NNS(C)(=O)=O)c1.[Cl-] (stereo not shown) [Compound 61, 1-(2-(4-carboethoxy-thiazolidin-3-yl)-2-oxoethyl) -3-(methanesulfonyl hydrazinocarbonyl) pyridinium chloride] | 25.06 | 
7 | O=C(NNC(=O)c1ccc[n+](CC(=O)c2ccc(Cl)s2)c1)c1ccc[n+](CC(=O)c2ccc(Cl)s2)c1 [Compound 62, N, N'-bis [3-carbonyl-1-(2-(5-chlorothien-2-yl)-2-oxoethyl)pyridinium] hydrazine dichloride] | 78.41 | AGE breaking activity compared to PTB [1]: superior; potency (AGE breaking activity compared to PTB) [1]: significantly much higher
8 | O=C(C[n+]1ccc(C(=O)NCCOC(=O)c2ccccc2)cc1)Nc1ccccc1.[Cl-] [Compound 66, 1-(2-phenylamino-2-oxoethyl)-4-[2-(benzoyloxy)ethylaminocarbonyl] pyridinium chloride] | 19.07 | 
9 | NC(=O)c1ccc[n+](CC(=O)c2cccs2)c1 [Compound 85, 3-Carbonylamino-1-(2-thien-2'-yl-2-oxoethyl)-pyridinium bromide] | 3 | 
10 | CCOC(=O)C[n+]1cccc(C(=O)NCCO)c1.[Br-] [Compound 87, 1-(2-Ethoxy-2-oxoethyl)-3-((2-hydroxyethyl)aminocarbonyl) pyridinium bromide] | 43 | 
11 | CCCCNC(=O)c1ccc[n+](CC(=O)Nc2ccccc2)c1.[Cl-] [Compound 94, 1-(2-Phenylamino - 2-oxoethyl) - 3 - (n-butylaminocarbonyl) pyridinium chloride] | 27 | 
12 | O=C(C[n+]1cccc(C(=O)NCCO)c1)Nc1ccccc1.[Cl-] [Compound 95, 1-(2- Phenylamino - 2-oxoethyl)-3-((2-hydroxyethyl)aminocarbonyl) - pyridinium chloride] |  | % Breakage (20 mM test compound): 48%
13 | O=C(C[n+]1ccsc1)c1ccccc1 [PTB, reference compound] | 27 | % Breakage (20 mM test compound): 47%

Source: patent EP1304101A1, “Composition and method for use of pyridinium derivatives in cosmetic and therapeutic applications” (Torrent Pharmaceuticals Ltd, priority 2001, dated 2003)
